# Values quoted from earlier work as cited in paper PMC9549396 (Proceedings of the National Academy of Sciences of the …, 2022).
# Target: PI3KC2β (Homo sapiens, UniProt O00750)
# Assay: lipid kinase activity inhibition
# Type: biochemical
# Sequence of PI3KC2β (O00750 whole entry): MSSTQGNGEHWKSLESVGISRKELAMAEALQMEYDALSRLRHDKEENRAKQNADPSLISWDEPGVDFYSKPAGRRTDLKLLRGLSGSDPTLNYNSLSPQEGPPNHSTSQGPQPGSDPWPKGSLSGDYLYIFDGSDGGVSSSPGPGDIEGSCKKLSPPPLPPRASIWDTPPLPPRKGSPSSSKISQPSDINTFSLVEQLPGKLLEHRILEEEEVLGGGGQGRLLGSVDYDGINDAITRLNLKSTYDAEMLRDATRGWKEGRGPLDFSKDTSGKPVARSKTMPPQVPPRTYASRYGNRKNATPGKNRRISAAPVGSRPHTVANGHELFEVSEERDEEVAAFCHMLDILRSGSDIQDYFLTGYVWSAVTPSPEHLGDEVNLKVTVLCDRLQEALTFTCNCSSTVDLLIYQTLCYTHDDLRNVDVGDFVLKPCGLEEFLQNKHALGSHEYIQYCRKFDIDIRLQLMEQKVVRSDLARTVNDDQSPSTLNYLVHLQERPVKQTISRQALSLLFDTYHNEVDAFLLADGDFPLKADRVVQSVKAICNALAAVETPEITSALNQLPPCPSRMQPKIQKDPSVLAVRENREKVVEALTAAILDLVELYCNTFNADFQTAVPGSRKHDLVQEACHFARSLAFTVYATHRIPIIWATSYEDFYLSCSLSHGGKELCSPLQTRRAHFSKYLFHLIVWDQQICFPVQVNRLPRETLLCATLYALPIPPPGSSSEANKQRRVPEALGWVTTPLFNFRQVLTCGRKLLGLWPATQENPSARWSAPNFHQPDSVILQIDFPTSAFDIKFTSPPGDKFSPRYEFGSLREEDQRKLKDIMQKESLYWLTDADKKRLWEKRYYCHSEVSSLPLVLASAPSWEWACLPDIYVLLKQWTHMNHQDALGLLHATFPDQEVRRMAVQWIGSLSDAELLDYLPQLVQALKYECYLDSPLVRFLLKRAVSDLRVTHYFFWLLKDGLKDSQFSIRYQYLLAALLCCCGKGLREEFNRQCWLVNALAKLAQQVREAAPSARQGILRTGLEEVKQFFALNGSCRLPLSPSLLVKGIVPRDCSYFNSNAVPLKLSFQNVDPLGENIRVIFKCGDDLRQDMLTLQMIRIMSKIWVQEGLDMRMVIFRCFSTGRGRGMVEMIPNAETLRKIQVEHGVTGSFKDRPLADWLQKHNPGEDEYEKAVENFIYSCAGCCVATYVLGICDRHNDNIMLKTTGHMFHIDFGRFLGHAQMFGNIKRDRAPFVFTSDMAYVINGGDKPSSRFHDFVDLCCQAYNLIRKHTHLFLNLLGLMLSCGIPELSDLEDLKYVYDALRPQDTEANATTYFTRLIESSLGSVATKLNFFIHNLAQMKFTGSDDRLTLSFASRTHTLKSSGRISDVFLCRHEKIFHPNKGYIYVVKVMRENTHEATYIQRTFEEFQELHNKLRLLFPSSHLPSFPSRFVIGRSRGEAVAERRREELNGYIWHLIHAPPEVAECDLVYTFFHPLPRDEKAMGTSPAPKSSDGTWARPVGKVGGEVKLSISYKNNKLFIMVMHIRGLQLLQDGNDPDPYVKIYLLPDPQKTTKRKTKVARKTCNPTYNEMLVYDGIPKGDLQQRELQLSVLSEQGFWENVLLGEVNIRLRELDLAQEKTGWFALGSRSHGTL
substance,measurement,value
PITCOIN2,IC50,1500 nM
